Assay results reported in patent US20100179143A1, “NAPHTHYRIDINE, DERIVATIVES AS P13 KINASE INHIBITORS” (Smithkline Beecham Corporation, priority 2007, published 2010).
Read-outs that look alike come from different tables or passages of the source.

How the values were obtained:
[1] = biological target: T1, PI3Kα (Homo sapiens, UniProt P42336); experiment: PI3K alpha Leadseeker SPA Assay; format: biochemical; settings: in at least one experimental run; read-out: IC50 against PI3Kα
T1 construct: His
T1 sequence (P42336 whole entry): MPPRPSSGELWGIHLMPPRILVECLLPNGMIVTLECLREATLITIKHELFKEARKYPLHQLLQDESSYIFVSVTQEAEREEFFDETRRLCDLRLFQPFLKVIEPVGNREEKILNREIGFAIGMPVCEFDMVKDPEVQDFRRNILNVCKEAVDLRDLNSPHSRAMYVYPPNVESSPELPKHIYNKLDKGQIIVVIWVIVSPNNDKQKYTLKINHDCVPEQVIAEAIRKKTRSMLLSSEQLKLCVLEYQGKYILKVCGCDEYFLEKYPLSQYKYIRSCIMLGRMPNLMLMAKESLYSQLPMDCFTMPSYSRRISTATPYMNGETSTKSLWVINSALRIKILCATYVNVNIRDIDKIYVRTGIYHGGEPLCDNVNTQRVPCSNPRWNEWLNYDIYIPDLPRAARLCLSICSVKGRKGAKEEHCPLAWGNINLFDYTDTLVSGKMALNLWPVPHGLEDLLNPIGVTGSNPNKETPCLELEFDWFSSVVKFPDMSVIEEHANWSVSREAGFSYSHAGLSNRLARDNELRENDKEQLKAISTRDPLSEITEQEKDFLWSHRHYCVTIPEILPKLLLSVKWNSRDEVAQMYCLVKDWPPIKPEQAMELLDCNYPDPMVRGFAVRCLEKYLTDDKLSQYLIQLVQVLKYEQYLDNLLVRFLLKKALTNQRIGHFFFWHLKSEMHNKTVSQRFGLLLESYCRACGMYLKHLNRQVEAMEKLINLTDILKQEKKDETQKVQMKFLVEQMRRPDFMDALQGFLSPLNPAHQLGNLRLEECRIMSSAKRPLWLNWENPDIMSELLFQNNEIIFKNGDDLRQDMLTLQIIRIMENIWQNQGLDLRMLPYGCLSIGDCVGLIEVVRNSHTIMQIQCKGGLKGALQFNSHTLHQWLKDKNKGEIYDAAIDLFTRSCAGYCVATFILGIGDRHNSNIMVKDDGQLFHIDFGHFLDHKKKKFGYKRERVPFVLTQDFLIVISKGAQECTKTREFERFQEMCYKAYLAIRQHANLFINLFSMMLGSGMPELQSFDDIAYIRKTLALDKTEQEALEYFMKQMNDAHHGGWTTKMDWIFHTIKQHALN
T1 sequence (P27986 whole entry partner): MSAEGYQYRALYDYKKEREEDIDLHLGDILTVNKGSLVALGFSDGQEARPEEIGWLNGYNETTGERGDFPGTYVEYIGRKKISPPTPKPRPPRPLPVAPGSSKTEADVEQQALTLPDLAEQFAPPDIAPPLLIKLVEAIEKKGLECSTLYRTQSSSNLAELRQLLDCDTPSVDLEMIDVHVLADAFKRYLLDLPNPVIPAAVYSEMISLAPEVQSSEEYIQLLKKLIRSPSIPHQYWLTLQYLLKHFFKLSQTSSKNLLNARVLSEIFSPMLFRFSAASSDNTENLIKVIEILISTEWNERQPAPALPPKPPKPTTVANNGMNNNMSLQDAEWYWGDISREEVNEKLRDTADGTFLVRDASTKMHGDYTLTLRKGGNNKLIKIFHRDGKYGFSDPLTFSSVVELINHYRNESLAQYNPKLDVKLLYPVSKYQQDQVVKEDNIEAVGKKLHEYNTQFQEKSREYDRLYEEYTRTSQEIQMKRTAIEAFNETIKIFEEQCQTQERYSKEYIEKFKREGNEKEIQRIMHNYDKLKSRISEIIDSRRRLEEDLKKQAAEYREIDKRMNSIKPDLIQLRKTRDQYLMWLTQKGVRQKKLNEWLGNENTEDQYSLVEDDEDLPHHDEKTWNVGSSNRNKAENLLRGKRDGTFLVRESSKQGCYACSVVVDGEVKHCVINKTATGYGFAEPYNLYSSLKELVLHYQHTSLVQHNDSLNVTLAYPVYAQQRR
Method: PI3K alpha Leadseeker SPA Assay
Compounds of the present invention were tested according to the following assays and found as inhibitors of PI3 kinases, particularly PI3Kα. The exemplified compounds were tested and found active against PI3Kα. The IC50's ranged from about 1 nM to 10 μM.
SPA imaging beads are microspheres containing scintillant which emit light in the red region of the visible spectrum. As a result, these beads are ideally suited to use with a CCD imager such as the Viewlux. The Leadseeker beads used in this system are polystyrene beads that have been coupled with polyethyleneimine. When added to the assay mixture, the beads absorb both the substrate (PIP2) and product (PIP3). Adsorbed P^33-PIP3 will cause an increase in signal, measured as ADUs (analog to digital units). This protocol details the use of the PEI-PS Leadseeker beads for assays using His-p110/p85 PI3K alpha.
Solid compounds are typically plated with 0.1 μl of 100% DMSO in all wells (except column 6 and 18) of a 384-well, flat bottom, low volume plate (Greiner 784075). The compounds are serially diluted (3-fold in 100% DMSO) across the plate from column 1 to column 12 and column 13 to column 24 and leave column 6 and 18 containing only DMSO to yield 11 concentrations for each test compound.
The assay buffer contains MOPS (pH 6.5), CHAPS, and DTT. PI3K alpha and PIP2 (L-alpha-D-myo-Phosphatidylinositol 4,5-bisphosphate [P1(4,5)P2]3-O-phospho linked, D(+)-sn-1,2-di-O-octanoylglyceryl, CellSignals #901) are mixed and incubated in the plate with compound for 30 min prior to starting the reaction with the addition of P^33-ATP and MgCl2 (reagents added using Zoom). Enzyme-free wells (column 18) are typically done to determine the low control. PEI-PS Leadseeker beads in PBS/EDTA/CHAPS are added (by Multidrop) to quench the reaction, and the plates are allowed to incubate for at least one hour (typically overnight) before centrifugation. The signal is determined using a Viewlux detector and is then imported into curve fitting software (Activity Base) for construction of concentration response curves. The percent inhibition of activity was calculated relative to high controls (C1, 0.1 μl DMSO in column 6, rows A-P)) and low controls (C2, 5 μl of 40 uM PIP2 in buffer in column 18, rows A-P) using, 100*(1−(U1−C2)/(C1-C2)). The concentration of test compound yielding 50% inhibition was determined using the equation, y=((Vmax*x)/(K+x))+Y2, where “K” was equal to the IC50. The IC50 values were converted to pIC50 values, i.e., −log IC50 in Molar concentration.

[2] = system: Class I PI3-kinases; settings: cited from earlier work
[3] = biological target: CK2 protein kinase; settings: read-out: inhibition of CK2 protein kinase; cited from earlier work
[4] = system: neutrophils; settings: cited from earlier work
[5] = system: neutrophils; settings: treatment of neutrophils; Thelen et al. 1994; cited from earlier work

**Q.** For `c1ccc(-c2n[nH]cc2-c2ccc3nccc(-c4ccncc4)c3n2)cc1` [Example 5, 2-(3-phenyl-1H-pyrazol-4-yl)-8-(4-pyridinyl)-1,5-naphthyridine], which IC50 [1] is on record?
**A.** 0.031 µM

**Q.** What does the source list for `O=c1cc(N2CCOCC2)oc2c(-c3ccccc3)cccc12` [LY294002]?
**A.** IC50 ([2]; Fruman et al. 1998, read-out: IC50 against each of these PI3-kinases): 15 to 20 µM; IC50 [3]: 5 to 10 µM; neutrophil migration [4]: block; superoxide release [4]: block

**Q.** With `CN(C)S(=O)(=O)c1cc(-c2ccc3nccc(-c4ccncc4)c3n2)cnc1N` [Example 2, 2-amino-N,N-dimethyl-5-[8-(4-pyridinyl)-1,5-naphthyridin-2-yl]-3-pyridinesulfonamide] as the compound, how does the IC50 [1] read?
**A.** 0.003 µM

**Q.** With `CN1CCN(c2ccnc3ccc(-c4cncc(S(=O)(=O)Nc5ccc(F)cc5F)c4)nc23)CC1` [Example 32, N-(2,4-difluorophenyl)-5-[8-(4-methyl-1-piperazinyl)-1,5-naphthyridin-2-yl]-3-pyridinesulfonamide] as the compound, how does the IC50 [1] read?
**A.** 0.05 µM

**Q.** For `NS(=O)(=O)c1cncc(-c2ccc3nccc(-c4cccc(OC(F)(F)F)c4)c3n2)c1` [Example 9, 5-(8-{3-[(trifluoromethyl)oxy]phenyl}-1,5-naphthyridin-2-yl)-3-pyridinesulfonamide], which IC50 [1] is on record?
**A.** 0.027 µM

**Q.** Which IC50 [1] does the source give for `OCc1ccc(-c2ccc3nccc(-c4ccncc4)c3n2)o1` [Example 1, {5-[8-(4-pyridinyl)-1,5-naphthyridin-2-yl]-2-furanyl}methanol] here?
**A.** 0.04 µM

**Q.** With `CS(=O)(=O)Nc1ccc(-c2ccnc3ccc(-c4cncc(S(N)(=O)=O)c4)nc23)cc1` [Example 11, 5-(8-{4-[(methylsulfonyl)amino]phenyl}-1,5-naphthyridin-2-yl)-3-pyridinesulfonamide] as the compound, how does the IC50 [1] read?
**A.** 0.006 µM

**Q.** What does the source list for `COC[C@H]1OC(=O)c2coc3c2[C@@]1(C)C1=C(C3=O)[C@@H]2CCC(=O)[C@@]2(C)C[C@H]1OC(C)=O` [wortmannin]?
**A.** IC50 ([2]; wortmannin, read-out: IC50 against each of the various Class I PI3-kinases): 0.001 to 0.01 µM; fMLP-induced respiratory burst response [5]: prevents the fMLP-induced respiratory burst response; neutrophil migration [4]: block; superoxide release [4]: block
